≈ marks a conversion by molar mass, not a printed value. Read-outs that look alike come from different tables or passages of the source.
How the values were obtained:
Assay type in all cases: cell-based
S. aureus [1] = assay: MIC and MBC:MIC ratio, recent ocular isolates; settings: S. aureus (N = 30)
Staphylococcus aureus = assay: MIC, CLSI broth microdilution, clinical isolates; settings: for MIC50 / MIC90: Staphylococcus aureus
[2] = test system: Staphylococcus epidermidis; assay: MIC, CLSI broth microdilution, clinical isolates; settings: for MIC50: Staphylococcus epidermidis
[3] = test system: Staphylococcus lugdunensis; assay: MIC, CLSI broth microdilution, clinical isolates; settings: Staphylococcus lugdunensis (N = 15)
[4] = test system: Staphylococcus saprophyticus; assay: MIC, CLSI broth microdilution, clinical isolates; settings: Staphylococcus saprophyticus (N = 101)
[5] = test system: Staphylococcus haemolyticus; assay: MIC, CLSI broth microdilution, clinical isolates; settings: Staphylococcus haemolyticus (N = 101)
Staphylococcus warneri = assay: MIC, CLSI broth microdilution, clinical isolates; settings: Staphylococcus warneri (N = 50)
Staphylococcus hominis = assay: MIC, CLSI broth microdilution, clinical isolates; settings: Staphylococcus hominis (N = 50)
Streptococcus agalactiae = assay: MIC, CLSI broth microdilution, clinical isolates; settings: Streptococcus agalactiae (N = 100)
Streptococcus pneumoniae = assay: MIC, CLSI broth microdilution, clinical isolates
Streptococcus pyogenes = assay: MIC, CLSI broth microdilution, clinical isolates; settings: Streptococcus pyogenes (N = 101)
[6] = test system: Lancefield group C, F, G streptococci; assay: MIC, CLSI broth microdilution, clinical isolates; settings: G streptococci (N = 50)
Viridans streptococci = assay: MIC, CLSI broth microdilution, clinical isolates; settings: Viridans streptococci (N = 156)
Citrobacter koseri = assay: MIC, CLSI broth microdilution, clinical isolates; settings: Citrobacter koseri (N = 100)
Klebsiella oxytoca = assay: MIC, CLSI broth microdilution, clinical isolates; settings: Klebsiella oxytoca (N = 50)
Haemophilus influenzae = assay: MIC, CLSI broth microdilution, clinical isolates; settings: for MIC50 / MIC90: Haemophilus influenzae
Legionella pneumophila = assay: microbe, parasite or virus in culture
Moraxella catarrhalis = assay: MIC, CLSI broth microdilution, clinical isolates; settings: Moraxella catarrhalis (N = 101)
Morganella morganii = assay: MIC, CLSI broth microdilution, clinical isolates; settings: Morganella morganii (N = 51)
Anaerobic Bacteria = assay: MIC against anaerobic bacteria (Table 7)
S. aureus [7] = assay: MIC of clinical trial isolates, Studies 373, 433, 434; settings: Staphylococcus aureus
S. epidermidis = assay: as above; settings: Staphylococcus epidermidis
[8] = Staphylococcus aureus, recent ocular isolates
[9] = Staphylococcus aureus (CNS, N = 16)
[10] = Staphylococcus aureus (CS, N = 14)
[11] = Staphylococcus aureus (all phenotypes, N = 30)
[12] = MRSA, Staphylococcus aureus (MRSA, N = 11)
[13] = MSSA, Staphylococcus aureus (MSSA, N = 19)
[14] = Staphylococcus epidermidis (CNS, N = 6)
[15] = Staphylococcus epidermidis (CS, N = 9)
[16] = Staphylococcus epidermidis (MSSE, N = 6)
[17] = Staphylococcus epidermidis (all phenotypes, N = 15)
[18] = Streptococcus pneumoniae (PSSP, N = 31)
[19] = Haemophilus influenzae (all phenotypes, N = 40)
[20] = Haemophilus influenzae (bla negative, N = 24)
[21] = Haemophilus influenzae (bla positive, N = 16)
[22] = Clostridium perfringens, Clostridium perfringens (N = 21)

N[C@@H]1CCCCN(c2c(F)cc3c(=O)c(C(=O)O)cn(C4CC4)c3c2Cl)C1 [Besifloxacin, (R)-(+)-(3-amino-2,3,4,5,6,7-hexahydro-1H-azepin-1-yl)-8-chloro-1-cyclopropyl-6-fluoro-1,4,-dihydro-4-oxo-3-quinolinecarboxylic acid]
% of isolates with MBC:MIC ratio 1 (S. aureus [1]): 56.7%
% of isolates with MBC:MIC ratio 2 (S. aureus [1]): 23.3%
% of isolates with MBC:MIC ratio 4 (S. aureus [1]): 6.7%
% of isolates with MBC:MIC ratio 8 (S. aureus [1]): 13.3%
% of isolates with MBC:MIC ratio ≧16 (S. aureus [1]): 0.0%
MIC Range (S. aureus [1]; recent ocular isolates): 0.015 to 4 µg/mL
MIC50 (S. aureus [1]; [8]): 0.12 µg/mL
MIC90 (S. aureus [1]; [8]): 4 µg/mL
MIC Range (Staphylococcus aureus; [9]): 0.03 to 4 µg/mL
MIC Range (Staphylococcus aureus; [10]): 0.015 to 0.25 µg/mL
MIC Range (Staphylococcus aureus; Staphylococcus aureus (MRSA, N = 11)): 0.015 to 4 µg/mL
MIC Range (Staphylococcus aureus; Staphylococcus aureus (MSSA, N = 19)): 0.015 to 4 µg/mL
MIC Range (Staphylococcus aureus; [11]): 0.015 to 4 µg/mL
MIC50 (Staphylococcus aureus; [12]): 0.5 µg/mL (≈ 1.27 µM)
MIC90 (Staphylococcus aureus; [12]): 4 µg/mL (≈ 10.2 µM)
MIC50 (Staphylococcus aureus; [13]): 0.015 µg/mL (≈ 0.0381 µM)
MIC90 (Staphylococcus aureus; [13]): 0.25 µg/mL (≈ 0.635 µM)
MIC50 (Staphylococcus aureus; [9]): 0.25 µg/mL (≈ 0.635 µM)
MIC90 (Staphylococcus aureus; [9]): 4 µg/mL (≈ 10.2 µM)
MIC50 (Staphylococcus aureus; [10]): 0.015 µg/mL (≈ 0.0381 µM)
MIC90 (Staphylococcus aureus; [10]): 0.12 µg/mL (≈ 0.305 µM)
MIC50 (Staphylococcus aureus; [11]): 0.12 µg/mL (≈ 0.305 µM)
MIC90 (Staphylococcus aureus; [11]): 4 µg/mL (≈ 10.2 µM)
MIC Range [2, 14]: 0.25 to 4 µg/mL
MIC Range [2, 15]: 0.015 to 0.03 µg/mL
MIC Range ([2]; Staphylococcus epidermidis (MRSE, N = 9)): 0.015 to 4 µg/mL
MIC Range [2, 16]: 0.015 to 0.25 µg/mL
MIC90 [2, 17]: 4 µg/mL (≈ 10.2 µM)
MIC Range [2, 17]: 0.015 to 4 µg/mL
MIC50 ([2]; MRSE, Staphylococcus epidermidis (MRSE, N = 9)): 0.25 µg/mL (≈ 0.635 µM)
MIC50 [2, 14]: 0.25 µg/mL (≈ 0.635 µM)
MIC50 [2, 15]: 0.03 µg/mL (≈ 0.0762 µM)
MIC50 [2, 16]: 0.03 µg/mL (≈ 0.0762 µM)
MIC50 [2, 17]: 0.03 µg/mL (≈ 0.0762 µM)
MIC50 [3]: 0.06 µg/mL (≈ 0.152 µM)
MIC90 [3]: 0.5 µg/mL (≈ 1.27 µM)
MIC Range [3]: 0.015 to 2 µg/mL
MIC50 [4]: 0.06 µg/mL (≈ 0.152 µM)
MIC90 [4]: 0.12 µg/mL (≈ 0.305 µM)
MIC Range [4]: 0.015 to 0.25 µg/mL
MIC50 [5]: 0.5 µg/mL (≈ 1.27 µM)
MIC90 [5]: 1 µg/mL (≈ 2.54 µM)
MIC Range [5]: 0.015 to 4 µg/mL
MIC50 (Staphylococcus warneri): 0.06 µg/mL (≈ 0.152 µM)
MIC90 (Staphylococcus warneri): 1 µg/mL (≈ 2.54 µM)
MIC Range (Staphylococcus warneri): 0.015 to 2 µg/mL
MIC50 (Staphylococcus hominis): 0.25 µg/mL (≈ 0.635 µM)
MIC90 (Staphylococcus hominis): 1 µg/mL (≈ 2.54 µM)
MIC Range (Staphylococcus hominis): 0.015 to 2 µg/mL
MIC Range (Streptococcus agalactiae): 0.03 to 0.12 µg/mL
MIC50 (Streptococcus agalactiae; read-out: MIC50): 0.06 µg/mL (≈ 0.152 µM)
MIC90 (Streptococcus agalactiae; read-out: MIC90): 0.06 µg/mL (≈ 0.152 µM)
MIC Range (Streptococcus pneumoniae; Streptococcus pneumoniae (PISP, N = 2)): 0.06 to 0.12 µg/mL
MIC Range (Streptococcus pneumoniae; Streptococcus pneumoniae (PRSP, N = 2)): 0.03 to 0.06 µg/mL
MIC50 (Streptococcus pneumoniae; [18]): 0.06 µg/mL (≈ 0.152 µM)
MIC90 (Streptococcus pneumoniae; [18]): 0.06 µg/mL (≈ 0.152 µM)
MIC Range (Streptococcus pneumoniae; [18]): 0.015 to 0.5 µg/mL
MIC Range (Streptococcus pneumoniae; Streptococcus pneumoniae (all phenotypes, N = 35)): 0.015 to 0.5 µg/mL
MIC50 (Streptococcus pneumoniae; Streptococcus pneumoniae (all phenotypes, N = 35), read-out: MIC50): 0.06 µg/mL (≈ 0.152 µM)
MIC90 (Streptococcus pneumoniae; Streptococcus pneumoniae (all phenotypes, N = 35), read-out: MIC90): 0.06 µg/mL (≈ 0.152 µM)
MIC Range (Streptococcus pyogenes): 0.03 to 0.06 µg/mL
MIC50 (Streptococcus pyogenes; read-out: MIC50): 0.03 µg/mL (≈ 0.0762 µM)
MIC90 (Streptococcus pyogenes; read-out: MIC90): 0.06 µg/mL (≈ 0.152 µM)
MIC Range [6]: 0.015 to 0.25 µg/mL
MIC50 ([6]; read-out: MIC50): 0.03 µg/mL (≈ 0.0762 µM)
MIC90 ([6]; read-out: MIC90): 0.06 µg/mL (≈ 0.152 µM)
MIC Range (Viridans streptococci): 0.015 to 2 µg/mL
MIC50 (Viridans streptococci; read-out: MIC50): 0.06 µg/mL (≈ 0.152 µM)
MIC90 (Viridans streptococci; read-out: MIC90): 0.12 µg/mL (≈ 0.305 µM)
MIC50 (Citrobacter koseri): 0.06 µg/mL (≈ 0.152 µM)
MIC90 (Citrobacter koseri): 0.25 µg/mL (≈ 0.635 µM)
MIC50 (Klebsiella oxytoca): 0.12 µg/mL (≈ 0.305 µM)
MIC90 (Klebsiella oxytoca): 1 µg/mL (≈ 2.54 µM)
MIC Range (Klebsiella oxytoca): 0.06 to 8 µg/mL
MIC Range (Haemophilus influenzae; [19]): ≦0.004-0.03 μg/mL
MIC Range (Haemophilus influenzae; [20]): ≦0.004-0.03 μg/mL
MIC Range (Haemophilus influenzae; [21]): 8 to 30 ng/mL
MIC50 (Haemophilus influenzae; [19]): 0.015 µg/mL (≈ 0.0381 µM)
MIC90 (Haemophilus influenzae; [19]): 0.015 µg/mL (≈ 0.0381 µM)
MIC50 (Haemophilus influenzae; [20]): 0.015 µg/mL (≈ 0.0381 µM)
MIC90 (Haemophilus influenzae; [20]): 0.015 µg/mL (≈ 0.0381 µM)
MIC50 (Haemophilus influenzae; [21]): 0.015 µg/mL (≈ 0.0381 µM)
MIC90 (Haemophilus influenzae; [21]): 0.03 µg/mL (≈ 0.0762 µM)
MIC50 (Legionella pneumophila; Legionella pneumophila): 0.03 µg/mL (≈ 0.0762 µM)
MIC90 (Legionella pneumophila; Legionella pneumophila): 0.03 µg/mL (≈ 0.0762 µM)
MIC Range (Legionella pneumophila; Legionella pneumophila (N = 50)): 0.015 to 0.06 µg/mL
MIC50 (Moraxella catarrhalis): 0.03 µg/mL (≈ 0.0762 µM)
MIC90 (Moraxella catarrhalis): 0.03 µg/mL (≈ 0.0762 µM)
MIC Range (Moraxella catarrhalis): 0.015 to 0.12 µg/mL
MIC50 (Morganella morganii): 0.12 µg/mL (≈ 0.305 µM)
MIC90 (Morganella morganii): 4 µg/mL (≈ 10.2 µM)
MIC50 (Anaerobic Bacteria; Bacteroides fragilis, Bacteroides fragilis (N = 20), read-out: MIC50): 0.5 µg/mL (≈ 1.27 µM)
MIC90 (Anaerobic Bacteria; Bacteroides fragilis, Bacteroides fragilis (N = 20), read-out: MIC90): 1 µg/mL (≈ 2.54 µM)
MIC Range (Anaerobic Bacteria; Clostridium perfringens (N = 21)): 0.12 to 0.25 µg/mL
MIC50 (Anaerobic Bacteria; [22]): 0.25 µg/mL (≈ 0.635 µM)
MIC90 (Anaerobic Bacteria; [22]): 0.25 µg/mL (≈ 0.635 µM)
MIC50 (Anaerobic Bacteria; Cutibacterium acnes, Propionibacterium acnes (N = 21), read-out: MIC50): 0.25 µg/mL (≈ 0.635 µM)
MIC90 (Anaerobic Bacteria; Cutibacterium acnes, Propionibacterium acnes (N = 21), read-out: MIC90): 0.25 µg/mL (≈ 0.635 µM)
MIC Range (Anaerobic Bacteria; Fusobacterium spp. (N = 21)): 0.12 to 8 µg/mL
MIC50 (Anaerobic Bacteria; Fusobacterium spp. (N = 21), read-out: MIC50): 0.25 µg/mL (≈ 0.635 µM)
MIC Range (Anaerobic Bacteria; Prevotella spp. (N = 20)): 0.06 to 16 µg/mL
MIC50 (Anaerobic Bacteria; Prevotella spp. (N = 20), read-out: MIC50): 1 µg/mL (≈ 2.54 µM)
MIC90 (Anaerobic Bacteria; Prevotella spp. (N = 20), read-out: MIC90): 4 µg/mL (≈ 10.2 µM)
MIC Range (Anaerobic Bacteria; Propionibacterium acnes (N = 21)): 0.12 to 0.25 µg/mL
MIC90 (S. aureus [7]; MRSA, S. aureus MRSA-CR, N 17, read-out: MIC90): 4 µg/mL
MIC90 (S. aureus [7]; MRSA, S. aureus MRSA-CS, N 9, read-out: MIC90 (due to limited isolates, highest MIC value is given)): 0.06 µg/mL
MIC90 (S. aureus [7]; MRSA, Staphylococcus aureus (MRSA-CR), isolates of studies 373, 433, 434, read-out: MIC90): 4 µg/mL
MIC90 (S. aureus [7]; MSSA, S. aureus MSSA-CR, N 17, read-out: MIC90): 2 µg/mL
MIC90 (S. aureus [7]; MSSA, S. aureus MSSA-CS, N 144, read-out: MIC90): 0.06 µg/mL
MIC90 (S. aureus [7]; MSSA, Staphylococcus aureus (MSSA-CR), isolates of studies 373, 433, 434, read-out: MIC90): 2 µg/mL
MIC90 (S. aureus [7]; Staphylococcus aureus (all phenotypes), isolates of studies 373, 433, 434, read-out: MIC90): 0.5 µg/mL
MIC90 (S. epidermidis; MRSE, S. epidermidis MRSE-CR, N 24, read-out: MIC90): 4 µg/mL
MIC90 (S. epidermidis; MRSE, S. epidermidis MRSE-CS, N 27, read-out: MIC90): 0.06 µg/mL
MIC90 (S. epidermidis; S. epidermidis MSSE-CR, N 10, read-out: MIC90): 1 µg/mL
MIC90 (S. epidermidis; S. epidermidis MSSE-CS, N 50, read-out: MIC90): 0.06 µg/mL
MIC90 (S. epidermidis; isolates of studies 373, 433, 434, read-out: MIC90): 0.5 µg/mL
